# Reference: ChEMBL document CHEMBL1201862, “PubChem BioAssay data set” (2004)
# Calls of active or inactive are those of the source.
# Columns and labels:
# [1] = target: T1, Type-1 angiotensin II receptor (Homo sapiens, UniProt P30556); assay: antagonism of angiotensin II type 1 receptor – cell-based, uHTS hits, selectivity assay for APJ receptor antagonist project, dose response (AID 463214); assay type: functional;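 further: antagonist potency against angiotensin II stimulated AT1 response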
# T1 sequence (P30556 whole entry): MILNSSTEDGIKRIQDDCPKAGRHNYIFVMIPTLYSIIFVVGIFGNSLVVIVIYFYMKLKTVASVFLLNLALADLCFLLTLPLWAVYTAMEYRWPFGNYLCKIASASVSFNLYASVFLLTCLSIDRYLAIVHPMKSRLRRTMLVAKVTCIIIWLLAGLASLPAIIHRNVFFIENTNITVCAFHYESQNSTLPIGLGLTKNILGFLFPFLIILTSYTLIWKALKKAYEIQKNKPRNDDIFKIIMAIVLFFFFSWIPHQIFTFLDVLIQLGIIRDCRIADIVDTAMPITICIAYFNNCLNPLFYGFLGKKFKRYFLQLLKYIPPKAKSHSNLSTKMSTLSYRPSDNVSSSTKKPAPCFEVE
# [2] = target: Beta-galactosidase (Escherichia coli, UniProt Q8VNN2); assay: PubChem AID 485352; assay type: functional
# Sequence of Beta-galactosidase (Q8VNN2 whole entry): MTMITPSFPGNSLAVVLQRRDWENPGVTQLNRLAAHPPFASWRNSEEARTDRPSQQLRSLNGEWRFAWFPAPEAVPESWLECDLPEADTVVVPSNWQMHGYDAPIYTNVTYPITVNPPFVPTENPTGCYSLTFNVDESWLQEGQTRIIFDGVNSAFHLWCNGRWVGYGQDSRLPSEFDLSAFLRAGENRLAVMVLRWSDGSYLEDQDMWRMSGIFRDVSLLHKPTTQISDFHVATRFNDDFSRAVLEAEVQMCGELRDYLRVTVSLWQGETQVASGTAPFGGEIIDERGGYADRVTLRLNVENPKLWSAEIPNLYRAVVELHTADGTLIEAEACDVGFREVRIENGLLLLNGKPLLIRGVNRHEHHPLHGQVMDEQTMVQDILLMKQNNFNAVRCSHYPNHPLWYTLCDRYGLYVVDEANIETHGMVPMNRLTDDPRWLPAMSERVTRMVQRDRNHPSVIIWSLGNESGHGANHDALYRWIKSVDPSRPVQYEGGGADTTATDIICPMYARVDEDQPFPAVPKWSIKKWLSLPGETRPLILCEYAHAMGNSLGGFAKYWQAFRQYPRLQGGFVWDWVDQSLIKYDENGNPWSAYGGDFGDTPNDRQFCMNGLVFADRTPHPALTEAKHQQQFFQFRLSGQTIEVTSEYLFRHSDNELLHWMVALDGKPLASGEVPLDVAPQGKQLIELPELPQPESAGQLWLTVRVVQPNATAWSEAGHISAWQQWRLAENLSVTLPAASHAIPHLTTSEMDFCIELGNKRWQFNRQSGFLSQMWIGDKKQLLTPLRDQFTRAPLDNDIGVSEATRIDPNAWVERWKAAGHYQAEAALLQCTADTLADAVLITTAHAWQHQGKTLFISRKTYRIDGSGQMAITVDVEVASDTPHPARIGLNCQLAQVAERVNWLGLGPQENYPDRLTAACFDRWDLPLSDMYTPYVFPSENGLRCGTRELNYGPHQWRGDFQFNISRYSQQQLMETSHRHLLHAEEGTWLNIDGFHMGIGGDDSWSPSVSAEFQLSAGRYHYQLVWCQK
# [3] = cells; assay type: functional, cell-based
# [4] = tested on: CHO; assay: CHO cell viability loss, potency – luminescence, cytotoxicity control for TLR9-MyD88 binding inhibitor project, dose response (AID 588339); assay type: functional, cell-based, hamster; settings: Cricetulus griseus;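 further: CHO cells stably coexpressing TLR9 and MyD88 fusions from primary screen; compound exposure lasted 48 hours before viability readout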
# [5] = target: T2, Beta Lactamase (Pseudomonas aeruginosa, UniProt Q932Y6); assay: BLA reporter interference, concentration series – BLA reporter cells, FRET fluorescence, artefact control for NOD2-RIPK2 interaction inhibitor project, dose response (AID 651552); assay type: functional, cell-based
# T2 sequence (Q932Y6 whole entry): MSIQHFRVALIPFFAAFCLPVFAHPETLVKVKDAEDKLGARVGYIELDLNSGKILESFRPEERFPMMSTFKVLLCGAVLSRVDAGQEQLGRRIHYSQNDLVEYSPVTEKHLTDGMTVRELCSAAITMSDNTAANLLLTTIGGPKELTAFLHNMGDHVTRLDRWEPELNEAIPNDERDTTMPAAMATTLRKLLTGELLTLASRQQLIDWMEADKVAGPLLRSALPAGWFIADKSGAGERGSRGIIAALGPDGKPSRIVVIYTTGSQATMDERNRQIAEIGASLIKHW
# [6] = target: T3, Microphthalmia-associated transcription factor (Homo sapiens, UniProt O75030); assay: reducers of TRPM1 reporter luminescence, concentration series – cell-based, SK-MEL-5, cherry-picked, set 3, MITF inhibitor project, dose response (AID 493073); assay type: functional;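 further: SK-MEL-5 melanoma cells with luciferase driven by the MITF target TRPM1 promoter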
# T3 sequence (O75030 whole entry): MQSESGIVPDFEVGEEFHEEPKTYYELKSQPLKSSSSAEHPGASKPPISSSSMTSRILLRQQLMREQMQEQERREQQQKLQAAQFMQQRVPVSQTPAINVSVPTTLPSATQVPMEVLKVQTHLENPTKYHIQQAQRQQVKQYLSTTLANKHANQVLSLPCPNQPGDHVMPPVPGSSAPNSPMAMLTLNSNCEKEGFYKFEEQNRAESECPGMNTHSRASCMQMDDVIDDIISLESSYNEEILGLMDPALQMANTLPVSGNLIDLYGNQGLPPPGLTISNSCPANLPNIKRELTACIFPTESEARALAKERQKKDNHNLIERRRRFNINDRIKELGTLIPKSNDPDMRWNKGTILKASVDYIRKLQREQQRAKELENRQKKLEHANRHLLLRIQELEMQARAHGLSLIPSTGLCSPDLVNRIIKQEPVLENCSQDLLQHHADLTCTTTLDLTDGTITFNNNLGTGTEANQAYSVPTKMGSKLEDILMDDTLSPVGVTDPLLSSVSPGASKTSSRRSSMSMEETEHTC
# [7] = target: T2, Beta Lactamase; assay: BLA reporter interference, concentration series – BLA reporter cells, FRET fluorescence, artefact control for TLR9-MyD88 binding inhibitor project, dose response (AID 588341); assay type: cell-based;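 further: cell based assay in CHO-K1 cells stably expressing beta-lactamase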
# [8] = cells; assay type: functional, cell-based; remark: listed apart in the source
# [9] = Fluorescence-based cell-based high throughput dose response assay for inhibitors of the interaction of nucleotide-binding oligomerization domain containing 2 (NOD2) and the receptor-interacting serine-threonine kinase 2 (RIPK2).; assay type: functional; settings: Homo sapiens
# [10] = viability loss in HeLa cells – cytotoxicity control for MgcRacGAP inhibitor project, dose response (AID 624300); assay type: functional
# [11] = target: T4, Rac GTPase-activating protein 1 (Homo sapiens, UniProt Q9H0H5); assay: blockers of MgcRacGAP-driven Rac1 GTP hydrolysis – biochemical, ADP Hunter fluorescence, primary and confirmatory, confirmation (AID 624330); assay type: functional
# T4 sequence (Q9H0H5 whole entry): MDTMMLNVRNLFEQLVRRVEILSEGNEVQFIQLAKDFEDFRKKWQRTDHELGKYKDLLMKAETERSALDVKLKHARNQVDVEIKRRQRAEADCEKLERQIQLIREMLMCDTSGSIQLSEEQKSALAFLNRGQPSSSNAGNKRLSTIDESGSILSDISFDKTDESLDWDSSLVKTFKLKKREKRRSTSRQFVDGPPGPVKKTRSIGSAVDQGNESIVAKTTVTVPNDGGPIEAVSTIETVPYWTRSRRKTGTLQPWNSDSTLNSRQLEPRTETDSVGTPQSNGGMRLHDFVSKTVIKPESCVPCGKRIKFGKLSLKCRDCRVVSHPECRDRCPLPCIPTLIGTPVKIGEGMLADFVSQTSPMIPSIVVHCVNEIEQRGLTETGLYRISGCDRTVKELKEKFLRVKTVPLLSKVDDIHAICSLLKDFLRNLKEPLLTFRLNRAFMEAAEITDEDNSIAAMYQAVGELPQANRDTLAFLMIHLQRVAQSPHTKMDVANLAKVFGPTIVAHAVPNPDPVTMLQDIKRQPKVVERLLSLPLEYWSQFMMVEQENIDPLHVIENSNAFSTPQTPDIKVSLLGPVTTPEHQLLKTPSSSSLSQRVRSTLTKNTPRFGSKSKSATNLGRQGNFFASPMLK
# [12] = target: T5, Sentrin-specific protease 7 (Homo sapiens, UniProt Q9BQF6); assay type: functional;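 further: Luminescence-based dose-response confirmation of ultra-high-throughput screening hits, measuring inhibition of SENP7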
# T5 sequence (Q9BQF6 whole entry): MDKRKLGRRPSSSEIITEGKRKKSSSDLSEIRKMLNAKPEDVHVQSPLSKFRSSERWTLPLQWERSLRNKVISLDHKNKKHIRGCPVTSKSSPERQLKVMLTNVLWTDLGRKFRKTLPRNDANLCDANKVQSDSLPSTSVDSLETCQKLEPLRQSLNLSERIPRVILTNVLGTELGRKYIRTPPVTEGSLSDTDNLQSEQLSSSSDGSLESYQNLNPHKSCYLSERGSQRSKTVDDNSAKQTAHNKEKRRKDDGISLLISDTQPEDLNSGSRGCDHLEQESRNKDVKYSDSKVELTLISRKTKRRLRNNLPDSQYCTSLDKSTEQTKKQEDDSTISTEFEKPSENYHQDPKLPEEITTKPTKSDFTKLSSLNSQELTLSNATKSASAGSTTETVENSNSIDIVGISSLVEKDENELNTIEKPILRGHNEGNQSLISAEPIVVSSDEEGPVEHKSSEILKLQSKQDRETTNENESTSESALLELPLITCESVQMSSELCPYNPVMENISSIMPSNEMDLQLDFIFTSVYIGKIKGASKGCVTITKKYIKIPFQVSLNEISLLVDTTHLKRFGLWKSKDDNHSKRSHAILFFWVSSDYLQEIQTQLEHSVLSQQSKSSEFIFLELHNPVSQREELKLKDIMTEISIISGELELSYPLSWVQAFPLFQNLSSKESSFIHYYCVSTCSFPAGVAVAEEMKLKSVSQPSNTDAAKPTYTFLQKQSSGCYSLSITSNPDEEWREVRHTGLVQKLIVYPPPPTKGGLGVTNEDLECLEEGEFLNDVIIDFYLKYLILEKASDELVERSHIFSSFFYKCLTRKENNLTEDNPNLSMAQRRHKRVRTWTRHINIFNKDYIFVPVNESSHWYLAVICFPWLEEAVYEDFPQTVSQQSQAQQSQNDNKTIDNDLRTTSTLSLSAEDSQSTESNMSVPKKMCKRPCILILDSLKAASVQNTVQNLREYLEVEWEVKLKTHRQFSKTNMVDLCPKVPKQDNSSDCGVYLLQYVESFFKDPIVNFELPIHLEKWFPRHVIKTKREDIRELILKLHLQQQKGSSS
# [13] = target: T6, Sentrin-specific protease 6 (Homo sapiens, UniProt Q9GZR1); assay type: functional;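 further: Luminescence-based dose-response confirmatory assay of SENP6 inhibition, following up an ultra-high-throughput screen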
# T6 sequence (Q9GZR1 whole entry): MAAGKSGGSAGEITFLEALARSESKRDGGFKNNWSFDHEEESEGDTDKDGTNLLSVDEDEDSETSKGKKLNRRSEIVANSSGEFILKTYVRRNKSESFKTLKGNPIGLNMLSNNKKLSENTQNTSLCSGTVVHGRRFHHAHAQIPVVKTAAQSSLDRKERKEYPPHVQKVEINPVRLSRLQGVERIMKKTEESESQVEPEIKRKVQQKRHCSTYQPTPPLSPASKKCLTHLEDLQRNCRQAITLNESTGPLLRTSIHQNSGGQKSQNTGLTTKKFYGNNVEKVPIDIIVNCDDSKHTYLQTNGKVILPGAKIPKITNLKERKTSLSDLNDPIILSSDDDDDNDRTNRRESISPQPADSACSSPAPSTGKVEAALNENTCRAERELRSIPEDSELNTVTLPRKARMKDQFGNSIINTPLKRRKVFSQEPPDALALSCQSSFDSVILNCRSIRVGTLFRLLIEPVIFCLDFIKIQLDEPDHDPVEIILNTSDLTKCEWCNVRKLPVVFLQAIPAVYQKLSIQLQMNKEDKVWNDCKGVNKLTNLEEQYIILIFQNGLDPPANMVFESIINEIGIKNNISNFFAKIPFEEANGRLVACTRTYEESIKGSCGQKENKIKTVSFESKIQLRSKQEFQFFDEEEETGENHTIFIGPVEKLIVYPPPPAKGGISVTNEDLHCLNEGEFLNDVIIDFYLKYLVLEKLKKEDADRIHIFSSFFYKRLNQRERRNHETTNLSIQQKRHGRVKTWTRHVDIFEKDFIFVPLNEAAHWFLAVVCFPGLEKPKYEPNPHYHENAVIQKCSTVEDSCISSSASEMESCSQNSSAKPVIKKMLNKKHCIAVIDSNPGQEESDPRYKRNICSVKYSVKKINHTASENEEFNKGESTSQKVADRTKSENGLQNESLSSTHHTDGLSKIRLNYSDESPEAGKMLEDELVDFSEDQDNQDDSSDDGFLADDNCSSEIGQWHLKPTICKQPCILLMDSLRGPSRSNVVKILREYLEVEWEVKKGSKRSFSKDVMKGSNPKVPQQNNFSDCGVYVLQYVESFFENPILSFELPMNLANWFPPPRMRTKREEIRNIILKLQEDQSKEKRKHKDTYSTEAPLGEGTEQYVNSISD
# [14] = target: T7, Sentrin-specific protease 8 (Homo sapiens, UniProt Q96LD8); assay type: functional;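 further: luminescence read-out of SENP8 inhibition, dose-response confirmation following an ultra-high-throughput screen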
# T7 sequence (Q96LD8 whole entry): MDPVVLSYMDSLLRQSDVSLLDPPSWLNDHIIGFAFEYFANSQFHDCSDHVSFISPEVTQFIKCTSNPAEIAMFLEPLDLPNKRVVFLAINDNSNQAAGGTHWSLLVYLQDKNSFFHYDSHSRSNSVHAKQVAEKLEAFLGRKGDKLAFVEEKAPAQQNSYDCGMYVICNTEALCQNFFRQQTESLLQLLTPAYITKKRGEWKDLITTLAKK
# [15] = target: T8, Caspase-3 (Homo sapiens, UniProt P42574); assay type: functional;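 further: Dose-response selectivity test against caspase-3 for candidate inhibitors of sentrin-specific proteases (SENPs)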
# T8 sequence (P42574 whole entry): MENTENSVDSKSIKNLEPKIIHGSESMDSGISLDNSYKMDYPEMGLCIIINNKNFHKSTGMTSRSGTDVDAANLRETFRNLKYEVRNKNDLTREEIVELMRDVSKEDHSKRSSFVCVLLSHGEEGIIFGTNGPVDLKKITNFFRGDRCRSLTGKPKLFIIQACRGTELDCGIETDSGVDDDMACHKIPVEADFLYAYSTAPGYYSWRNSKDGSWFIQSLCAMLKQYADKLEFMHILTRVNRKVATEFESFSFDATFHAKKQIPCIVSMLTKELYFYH
# [16] = Counterscreen for inhibitors of Trypanosoma brucei methionyl tRNA synthetase (MetRS): Luminescence-based cell-based high throughput dose response assay to identify compounds that are cytotoxic to Jurkat human T lymphocyte cells.; assay type: functional
# [17] = target: T9, Methionyl-tRNA synthetase, putative (Trypanosoma brucei brucei, UniProt Q38C91); assay type: functional, Trypanosoma brucei brucei strain 927/4 GUTat10.1
# T9 sequence (Q38C91 whole entry): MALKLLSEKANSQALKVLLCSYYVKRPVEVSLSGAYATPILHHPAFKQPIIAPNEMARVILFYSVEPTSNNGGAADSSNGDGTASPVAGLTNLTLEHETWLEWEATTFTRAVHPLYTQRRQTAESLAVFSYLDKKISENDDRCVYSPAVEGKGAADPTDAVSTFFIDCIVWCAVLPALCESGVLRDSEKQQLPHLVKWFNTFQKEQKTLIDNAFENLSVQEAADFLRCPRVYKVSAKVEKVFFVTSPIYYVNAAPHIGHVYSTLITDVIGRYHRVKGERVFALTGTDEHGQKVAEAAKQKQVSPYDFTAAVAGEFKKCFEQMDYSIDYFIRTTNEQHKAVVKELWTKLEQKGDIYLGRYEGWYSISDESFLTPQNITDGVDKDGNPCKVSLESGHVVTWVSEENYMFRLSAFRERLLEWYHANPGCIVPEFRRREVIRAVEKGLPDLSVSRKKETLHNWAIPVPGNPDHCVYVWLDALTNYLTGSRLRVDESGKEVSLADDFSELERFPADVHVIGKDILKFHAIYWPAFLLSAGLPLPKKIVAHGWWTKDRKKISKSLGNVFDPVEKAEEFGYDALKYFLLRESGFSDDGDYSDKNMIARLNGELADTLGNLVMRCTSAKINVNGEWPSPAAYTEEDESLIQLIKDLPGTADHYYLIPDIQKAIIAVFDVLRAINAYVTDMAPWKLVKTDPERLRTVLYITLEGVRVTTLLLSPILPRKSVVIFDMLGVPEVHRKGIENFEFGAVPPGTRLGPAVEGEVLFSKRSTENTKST
# [18] = target: T9, Methionyl-tRNA synthetase, putative; assay type: functional, Trypanosoma brucei brucei strain 927/4 GUTat10.1; remark: listed apart in the source
smiles,measurement,setting,value
COc1ccc(C(=O)/C=C/C(=O)N(CC(=O)NC2CCCCC2)CC2CCCO2)c(O)c1 (stereo not drawn),IC50,[1],5.35 µM (active)
same,EC50,[2],> 40 µM (inactive)
same,EC50,[3],34.3 µM (active)
same,IC50,[4],1.84 µM (active)
same,IC50,[5],19.9 µM (inactive)
same,AC50,[6],4.01 µM (active)
same,IC50,[7],23.3 µM (inactive)
same,EC50,[8],> 350 µM (not active)
same,IC50,[9],2.17 µM (active)
COc1ccc(NC(=O)n2ncc3cc(Cl)ccc32)cc1OC,CC50,[10],100 µM (active)
same,IC50,[11],230 µM (active)
same,IC50,[12],6.04 µM (active)
same,IC50,[13],15.1 µM (active)
same,IC50,[14],20.3 µM (active)
same,IC50,[15],25.5 µM (active)
Cc1ccc(NC(=O)C=NOCC(=O)Nc2cc(C)cc(C)c2)cc1,IC50,[16],83.3 µM (inactive)
same,IC50,[17],119 µM (inactive)
same,IC50,[18],8.66 µM (active)
